According to ChEMBL document CHEMBL1159048, “Asymmetric syntheses of daedalin A and quercinol and their tyrosinase inhibitory activity” (Bioorg Med Chem Lett, 2010):

Tests used:
Tyrosinase = target: T1, Tyrosinase (Agaricus bisporus, UniProt O42713); test: Inhibition of mushroom tyrosinase
T1 sequence (O42713 whole entry): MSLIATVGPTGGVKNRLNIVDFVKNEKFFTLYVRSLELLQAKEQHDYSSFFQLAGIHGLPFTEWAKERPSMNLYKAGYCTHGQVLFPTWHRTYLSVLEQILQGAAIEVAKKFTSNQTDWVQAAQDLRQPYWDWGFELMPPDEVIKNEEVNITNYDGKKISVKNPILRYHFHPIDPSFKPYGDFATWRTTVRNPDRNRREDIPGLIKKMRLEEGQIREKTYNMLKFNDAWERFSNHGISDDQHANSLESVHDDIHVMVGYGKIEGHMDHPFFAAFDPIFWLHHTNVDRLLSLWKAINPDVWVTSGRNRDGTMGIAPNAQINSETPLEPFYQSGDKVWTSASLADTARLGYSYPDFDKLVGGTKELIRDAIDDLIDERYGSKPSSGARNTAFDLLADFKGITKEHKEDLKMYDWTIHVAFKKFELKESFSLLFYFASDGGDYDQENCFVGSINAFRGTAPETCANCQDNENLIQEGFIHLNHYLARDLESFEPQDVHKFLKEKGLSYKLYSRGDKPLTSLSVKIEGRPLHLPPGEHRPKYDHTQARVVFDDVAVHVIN

[1] = target: T2, Tyrosinase (Agaricus bisporus) (UniProt O42713); test: Inhibition of mushroom tyrosinase at 100 uM
T2 sequence (whole entry): T1 sequence (O42713 whole entry)

[2] = target: T2, Tyrosinase (Agaricus bisporus); test: Inhibition of mushroom tyrosinase at 400 uM
[3] = target: T2, Tyrosinase (Agaricus bisporus); test: Inhibition of mushroom tyrosinase at 200 uM

C[C@]1(CO)C=Cc2cc(O)ccc2O1 [DAEDALIN A] showed an IC50 (Tyrosinase) of 208 µM, an inhibition [1] of 28.6% and an inhibition [2] of 61.6%. The inhibition [3] was 48.4%.
